{
  "source": "patent US8114406B2",
  "about": "“Peptides and their utility in modulation of behavior of cells expressing α3β1 integrins” (The United States of America as represented by the …, priority 1999, dated 2012)",
  "key": {"BAE cells": {"tested_on": "BAE cells", "test": "Scratch wound repair of BAE cells", "format": "cell-based, bovine", "conditions": "cells arrested using 5-fluorouracil; 24 h", "method": "BAE cells were seeded at a density of 2×10^5 cells/well of 6 well tissue culture plates in complete growth medium supplemented with 10% FBS. After the cells formed a confluent cobblestone, cells were arrested using 10 μg/ml 5-fluorouracil for 48 h. Scrape wounds of 2 mm, width were made in the wells, and the cells were further incubated with medium containing 10% FBS, 10 μg/ml 5 fluorouracil and peptides 678, 709, or 690. Measurements of the distance between the wound margins were taken at 0 and 24 h, and the net migration is expressed as mean±SEM for triplicates.\nThe in vitro wound healing assay used was a slight modification of that described by Joyce et al. (Joyce et al., 1989). A confluent monolayer of BAE cells pretreated with 10 μg/ml 5-fluorouracil for […] were used in this assay. […] Mitosis of the BAE cells in the monolayers was inhibited by addition of 5-fluorouracil, so that the rate of wound closure was due solely to the migration of cells into the wound sites. The distances between the wound margins were measured as soon as the wound was made and 24 hours later using a grid incorporated into the eye piece of the microscope. All data represent the results obtained from three independent scratch wounds for each peptide tested."}, "MDA-MB-435 cells": {"tested_on": "MDA-MB-435 cells", "test": "MDA-MB-435 cell spreading on matrix proteins, inhibition by soluble peptide", "format": "cell-based, human", "conditions": "10 μM peptide 678 (FIG. 4A)", "method": "FIGS. 4A and 4B are graphs illustrating the inhibition of breast carcinoma cell spreading on matrix proteins by peptide 678. […] Cell spreading is presented as mean±SD, n=3. Panel B: Inhibition of MDA-MB-435 cell attachment to surfaces coated with 10 μM peptide 678 (●) or laminin peptide GD6 (◯) was measured in the presence of the indicated concentrations of peptide 678 added in solution.\nAdhesion assays of cells other than small cell lung carcinoma (SCLC)-Adhesion was measured on polystyrene or glass substrates coated with peptides or proteins as previously described (Guo et al., 1992). Peptides dissolved in PBS at 0.4 to 50 μM were incubated in polystyrene microliter plate wells overnight at 4° C. The wells were washed 3 times with distilled water. Adsorbed peptide was quantified using the BCA assay (Pierce Chemical) measuring absorbance at 570 and 630 nm as described by the supplier's protocol. The assay for adsorption was calibrated using purified peptide in solution as a standard. After blocking with 1% BSA in Dulbecco's PBS, adhesion assays were performed by adding cells suspended in DMEM (BAE cells) or medium 199 (human cells) containing 1 mg/ml BSA. Cell attachment and spreading was quantified microscopically."}},
  "note": "Where no end group is shown, it is not given here.",
  "data": [
    {"sequence": "FQGVLQNVRFVF [Peptide 678]", "values": [
      {"measurement": "inhibition of BAE cell migration into the wound", "setting": "BAE cells", "value": "dose-dependent inhibitor"},
      {"measurement": "inhibition of MDA-MB-435 spreading on TSP1 and murine laminin-1/entactin", "setting": "MDA-MB-435 cells", "value": "strongly inhibited"},
      {"measurement": "inhibition of MDA-MB-435 spreading on fibronectin or type IV collagen", "setting": "MDA-MB-435 cells", "value": "did not inhibit"}
    ]}
  ]
}
